Literature values as cited in patent US20220211813A1, “METHODS FOR TREATMENT OF NIEMANN-PICK DISEASE TYPE C” (LOMA LINDA UNIVERSITY, priority 2019, published 2022).

Tested on: IFN-γ
Conditions: as described in Pododlin et al. J Pharmacol Exp Ther. 312(1):373-81, 2005

Structure (SMILES): NC(=O)Nc1sc(-c2ccc(F)cc2)cc1C(N)=O [TPCA-1]
- blocks IFN-γ: about 50%
